From BindingDB's records for patent US20250197375 (Kineta, 2025)

Molecular target: T1, 1-phosphatidylinositol 3-phosphate 5-kinase [S696N,L932S,Q995L,T998S,S1033A,Q1183K] (Homo sapiens, UniProt Q9Y2I7, L932S/Q1183K/Q995L/S1033A/S696N/T998S)
T1 construct: gene PIKFYVE
Assay: PIKfyve Inhibitory Activity Assay
Experimental: PIKfyve Biochemical Assay. The biochemical PIKFyve inhibition assays were run by Cama Biosciences according to proprietary methodology based on the Promega ADP-Glo™ Kinase assay. […] GST-PIKFYVE was purified by using glutathione sepharose chromatography and used in an ADP-Glo™ Kinase assay (Promega). Reactions were set up by adding the test compound solution, substrate solution, ATP solution and kinase solution, each at 4× final concentrations. Reactions were prepared with assay buffer (50 mM MOPS, 1 mM DTT, pH7.2), mixed, and incubated in black 384 well polystyrene plates for 1 hour at room temperature. ADP-Glo™ reagent was then added for 40 minutes, followed by kinase detection reagent for an additional 40 minutes. The kinase activity was evaluated by detecting relative light units on a luminescence plate reader. Samples were run in duplicate from 10 μM to 3 nM. […] IC50 values were calculated from concentration versus percent inhibition curves by fitting to a four-parameter logistic curve.

T1 sequence (Q9Y2I7 2-2098 S696N/L932S/Q995L/T998S/S1033A/Q1183K limits assumed): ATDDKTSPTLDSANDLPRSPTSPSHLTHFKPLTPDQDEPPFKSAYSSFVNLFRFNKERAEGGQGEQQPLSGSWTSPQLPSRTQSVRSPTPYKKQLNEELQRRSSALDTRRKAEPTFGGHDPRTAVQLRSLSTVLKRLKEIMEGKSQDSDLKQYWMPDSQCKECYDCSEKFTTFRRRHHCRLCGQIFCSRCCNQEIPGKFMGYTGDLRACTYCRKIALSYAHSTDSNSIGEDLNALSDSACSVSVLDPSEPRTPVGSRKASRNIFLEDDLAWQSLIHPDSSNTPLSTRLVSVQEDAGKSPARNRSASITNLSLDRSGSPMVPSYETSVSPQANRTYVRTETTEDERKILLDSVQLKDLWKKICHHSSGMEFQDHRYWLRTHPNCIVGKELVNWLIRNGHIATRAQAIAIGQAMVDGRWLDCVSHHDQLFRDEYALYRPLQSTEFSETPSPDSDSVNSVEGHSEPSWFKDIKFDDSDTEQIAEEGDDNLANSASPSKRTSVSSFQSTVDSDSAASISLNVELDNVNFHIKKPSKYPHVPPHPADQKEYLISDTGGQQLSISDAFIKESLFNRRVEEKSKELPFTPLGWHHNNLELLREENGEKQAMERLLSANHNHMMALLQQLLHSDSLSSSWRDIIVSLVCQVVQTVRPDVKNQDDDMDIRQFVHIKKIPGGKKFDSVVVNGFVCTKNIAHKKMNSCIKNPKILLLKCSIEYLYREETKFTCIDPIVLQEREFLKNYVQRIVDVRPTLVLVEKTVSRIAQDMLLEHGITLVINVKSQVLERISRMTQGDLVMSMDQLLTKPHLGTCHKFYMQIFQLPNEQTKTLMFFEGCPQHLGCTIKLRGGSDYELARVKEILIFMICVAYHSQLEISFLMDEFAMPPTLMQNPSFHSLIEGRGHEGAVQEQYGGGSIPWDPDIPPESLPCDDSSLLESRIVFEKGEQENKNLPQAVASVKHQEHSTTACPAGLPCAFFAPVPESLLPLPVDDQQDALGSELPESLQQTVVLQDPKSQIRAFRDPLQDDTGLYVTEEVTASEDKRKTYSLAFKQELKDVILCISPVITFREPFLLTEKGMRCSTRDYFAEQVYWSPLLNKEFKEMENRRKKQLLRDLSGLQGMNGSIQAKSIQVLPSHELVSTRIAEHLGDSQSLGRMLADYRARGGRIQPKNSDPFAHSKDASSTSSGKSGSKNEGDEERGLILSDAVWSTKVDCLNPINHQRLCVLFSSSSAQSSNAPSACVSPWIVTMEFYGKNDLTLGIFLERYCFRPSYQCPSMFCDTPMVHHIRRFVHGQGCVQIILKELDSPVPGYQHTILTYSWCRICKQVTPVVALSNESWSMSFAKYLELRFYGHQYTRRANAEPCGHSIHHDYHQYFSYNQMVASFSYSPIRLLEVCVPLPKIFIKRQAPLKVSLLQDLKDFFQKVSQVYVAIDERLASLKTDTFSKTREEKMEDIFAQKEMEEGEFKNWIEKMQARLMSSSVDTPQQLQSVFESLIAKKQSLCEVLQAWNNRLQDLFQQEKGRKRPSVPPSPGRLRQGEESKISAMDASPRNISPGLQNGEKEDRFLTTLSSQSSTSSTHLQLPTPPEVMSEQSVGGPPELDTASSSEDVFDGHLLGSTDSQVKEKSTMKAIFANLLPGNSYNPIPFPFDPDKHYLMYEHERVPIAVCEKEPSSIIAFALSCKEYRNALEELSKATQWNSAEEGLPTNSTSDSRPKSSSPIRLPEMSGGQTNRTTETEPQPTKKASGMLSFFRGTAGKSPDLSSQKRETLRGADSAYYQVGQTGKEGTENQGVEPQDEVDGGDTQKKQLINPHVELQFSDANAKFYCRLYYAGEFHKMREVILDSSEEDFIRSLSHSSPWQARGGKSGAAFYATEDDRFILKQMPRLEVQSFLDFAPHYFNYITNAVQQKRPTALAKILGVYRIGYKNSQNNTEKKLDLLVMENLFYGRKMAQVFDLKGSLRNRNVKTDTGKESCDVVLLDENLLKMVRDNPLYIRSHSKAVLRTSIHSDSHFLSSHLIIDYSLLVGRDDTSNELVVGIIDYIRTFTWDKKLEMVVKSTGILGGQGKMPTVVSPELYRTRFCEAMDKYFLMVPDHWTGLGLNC

## CN(C)C(=O)c1c(Nc2ccncc2)nc(N2CCOCC2)nc1-c1cccc(-c2ccn(C)n2)c1 [US20250197375, Compound 66]
  IC50: < 10 nM
